The structures appear in SMILES notation. Values after ≈ are worked out from the molar mass of the structure shown. Like-named read-outs stand apart in the source and are kept apart here.

One data set has as its system late gametocytes. Also noted: method as in PMID 20149239. The following applies: flow cytometry assay; cited from earlier work. A general note: Flow cytometry measures light scatter and fluorescence of single cells or particles in a stream.
The nature of data set [1]: Cytotoxicity, resazurin-based reductase assay. Type of data set: cell-based, human. The following applies: human, HepG2, 48 h exposure, resazurin, mean ± SD, 3–6 independent experiments. The protocol:
(§1) Cells were grown and maintained in EMEM (Sigma-Aldrich) supplemented with 2 mM L-glutamine (Sigma-Aldrich) and 10% fetal calf serum (Perbio). […] For cytotoxicity experiments, cells were seeded onto 96-well clear bottom black plates coated with type I collagen (Biocoat, Becton Dickinson) at a cell density of 10000 cells/well.
(§2) The culture medium was as described above, but supplemented with 5% fetal calf serum. Following the 48 h exposure period, a 0.004% resazurin solution was prepared by adding 60 mL of Dulbecco's PBS to each resazurin tablet (VWR International). The tablet was allowed to dissolve by placing the container in a bath maintained at 37°C, protected from light, for approximately 30 minutes. Medium was removed and 200 µL of fresh culture medium and 50 µL of resazurin solution were added to each well. Plates were incubated for a further 1 ½ hours. Cytotoxicity is indicated by decreased reduction of resazurin to its fluorescent product resorufin. The fluorescence was stabilized at room temperature for 15 minutes protected from light. […] Percentages of inhibition were calculated relative to the control wells.
Background: Resazurin is reduced to fluorescent resorufin, in cell work by metabolically active cells.

The test system of data set [2] is P. falciparum asexual forms (3D7HT-GFP). Description: In vitro antiplasmodial activity on asexual stages (uptake of radiolabeled nucleic acid precursor), 3D7HT-GFP. In kind it is cell-based, Plasmodium falciparum. The following applies: read-out: IC50 Activity against asexual forms (3D7HT-GFP). How it is done:
(§3) IC50 values were measured as previously reported but all of the tests were done with serum-free cultures (using AlbuMAX II)

The subject of data set [3] is P. falciparum asexual forms (3D7A). Kind of data set: In vitro antiplasmodial activity on asexual stages (uptake of radiolabeled nucleic acid precursor), 3D7A. In kind it is cell-based, Plasmodium falciparum. The following applies: read-out: IC50 Activity against asexual forms (3D7A). How it is done:
as §3

Data set [4] concerns P. falciparum stage IV–V gametocytes (3D7HT-GFP strain). Description: microbe, parasite or virus in culture. Type of data set: cell-based, Plasmodium falciparum. The protocol:
Once purified, gametocytes were counted using a Neubauer chamber. Gametocytes (5×10^4 gametocytes per well) were transferred to a 96-well plate in a final volume of 100 µL, and dilutions of each drug were added (final DMSO concentration 0.5%). Plates were incubated (at 37°C in a 5% CO2 humidified incubator) for 48 h. The ATP level of each well was determined using the BacTiter-Glo™ reagent (Promega) according to manufacturer's recommendations. The BacTiter-Glo™ assay generates a “glow-type” luminescent signal produced by the luciferase reaction, which consists of mono-oxygenation of luciferin catalyzed by luciferase in the presence of Mg2+, ATP, and molecular oxygen.

Data set [5] has as its system gametocytes. Also noted: method as in PMID 17242150. The following applies: cited from earlier work.
Data set [6] has as its system gametocytes. The conditions noted are these: cited from earlier work.
The subject of data set [7] is P. falciparum mature gametocytes. Kind of data set: Microscopic enumeration of gametocytes on Giemsa-stained smears. In kind it is cell-based, Plasmodium falciparum. The conditions noted are these: read-out: IC50 gametocytes Microscopy examination. How it is done:
100 µl of the culture (day 15, HT 6%) were plated in each well with the appropriate dilution of drug. 48 h after, 10 µl of each well was used to prepare a thin blood film and stain it with Giemsa. The number of gametocytes per 10,000–15,000 RBCs were counted and compared to the control (no drug, 0.5% DMSO).

For the next data set, the system named is HepG2 cells. Kind of data set: Cytotoxicity, resazurin-based reductase assay. Type of data set: cell-based, human. The protocol:
as §1, §2

The subject of data set [8] is gametocytes. Also noted: method as in PMID 21316401. The following applies: at 1 µM; cited from earlier work.
Where [9] appears, read: Plasmodium falciparum, mean ± SD, 3–6 independent experiments, serum-free (AlbuMAX II).
[10] abbreviates: Plasmodium falciparum, 48 h, read-out: IC50 Activity against mature gametocytes IV–V, ATP bioluminescence, 48 h, 3D7HT-GFP, mean ± SD, 3–6 independent experiments.
Where [11] appears, read: Plasmodium falciparum, 48 h, read-out: IC50 gametocytes ATP method, mature gametocytes, 48 h drug exposure (Table 1).
Where [12] appears, read: Plasmodium falciparum, mature gametocytes, 48 h incubation, Giemsa smear counting.

The IC50 is the concentration that inhibits the measured activity by half. On to `C[C@@H]1CC[C@H]2[C@@H](C)C(=O)O[C@@H]3O[C@@]4(C)CC[C@@H]1[C@]32OO4` [artemisinin], for which, in the data set on late gametocytes, the IC50 was 1 µM.
On to `CCCCN(CCCC)CC(O)c1cc(Cl)cc2c1-c1ccc(Cl)cc1/C2=C/c1ccc(Cl)cc1` (stereo not drawn) [Lumefantrine], for which the IC50 at 48 h in [1] (HepG2 cells) was above 50 µM. For the same molecule, the values for the IC50 in data set [2] (Plasmodium falciparum), in [3] (setting [9]) and in [4] (setting [10]) were 0.00165 ± 7e-05 µM, 0.0032 ± 0.00014 µM and above 50 µM, respectively.
With `C[C@H]1[C@H](OC(=O)CCC(=O)O)O[C@@H]2O[C@@]3(C)CC[C@H]4[C@H](C)CC[C@@H]1[C@@]24OO3` [Artesunate], the IC50 was 0.108 µM with gametocytes [5]; 0.054 ± 0.03 µM in [2] (Plasmodium falciparum); 0.037 ± 0.025 µM in data set [3] (setting [9]); 10.8 ± 3.7 µM in [4] (setting [10]); 10.8 µM in data set [4] (setting [11]); 2.26 µM in [7] (setting [12]). In the data set with gametocytes [6], the IC50 on gametocytes is reported as 0.1 ng/mL (≈ 0.26 nM). The molecule further yielded an IC50 at 48 h in [1] (HepG2 cells) above 50 µM.
Turning to `CN(C)c1ccc2nc3ccc(=[N+](C)C)cc-3sc2c1` [Methylene blue], in [1] (HepG2 cells), the IC50 at 48 h is 6.52 ± 1.31 µM. The IC50 in [2] (Plasmodium falciparum) came out at 0.01 ± 0.0018 µM; in data set [3] (setting [9]), 0.011 ± 0.008 µM; in data set [4] (setting [10]), 0.49 ± 0.16 µM; in data set [4] (setting [11]) it was 0.49 µM; in [7] (setting [12]), 0.76 µM.
In data set [1] (HepG2 cells), `CCN(CC)Cc1ccc(Nc2ccnc3cc(Cl)ccc23)cc1O` [Isoquine] yielded an IC50 at 48 h of 17.1 ± 6.3 µM. Also, the values for the IC50 in data set [2] (Plasmodium falciparum), in data set [3] (setting [9]) and in [4] (setting [10]) were 0.0044 ± 0.0032 µM, 0.009 ± 0.0016 µM and 28.5 ± 2.12 µM, respectively.
Take `CCN(CC)CCCC(C)Nc1ccnc2cc(Cl)ccc12` (stereo not drawn) [Chloroquine]: the IC50 in [2] (Plasmodium falciparum) came out at 0.007 ± 0.002 µM; in data set [3] (Plasmodium falciparum), 0.006 ± 0.0002 µM; in data set [4] (setting [10]), 23.5 ± 2.66 µM; in data set [4] (setting [11]), 23.5 µM; in data set [7] (Plasmodium falciparum, 48 h), 28.4 µM.
`C[C@@H]1C[C@@H]([C@H](O)CC2CC(=O)NC(=O)C2)C(=O)[C@@H](C)C1` [Cycloheximide]: in data set [1], the IC50 at 48 h came to 2.95 ± 0.35 µM. Also, the IC50 in [2] (Plasmodium falciparum) turned out to be 0.194 ± 0.0077 µM; in data set [3] (Plasmodium falciparum), 0.198 ± 0.0017 µM; in data set [4] (Plasmodium falciparum, 48 h, read-out: IC50 Activity against mature gametocytes IV–V), 6.23 ± 2.46 µM.
Consider `CC[C@H](C)[C@H](NC(=O)[C@H]([C@@H](C)CC)N(C)C(C)=O)C(=O)N[C@H](C(=O)N[C@@H](CC(C)C)C(=O)[C@@]1(C)CO1)[C@@H](C)O` [Epoxomicin], for which the IC50 with HepG2 cells (HepG2, 48 h exposure, resazurin, mean ± SD, 3–6 independent experiments) was found to be 0.003 ± 0.0005 µM; in data set [2] (mean ± SD, 3–6 independent experiments, serum-free (AlbuMAX II)), 0.0098 ± 0.0017 µM; in data set [3] it was 0.008 ± 0.001 µM; in [4] (ATP bioluminescence, 48 h, 3D7HT-GFP, mean ± SD, 3–6 independent experiments, read-out: IC50 Activity against mature gametocytes IV–V) it was 0.00042 ± 0.00011 µM; in [4] (mature gametocytes, 48 h drug exposure (Table 1), read-out: IC50 gametocytes ATP method), 0.00042 µM; in data set [7] (mature gametocytes, 48 h incubation, Giemsa smear counting), 0.0052 µM.
For the molecule `COc1ccc2nc3cc(Cl)ccc3c(Nc3cc(CN4CCCC4)c(O)c(CN4CCCC4)c3)c2n1` [Pyronaridine], the midpoint of inhibition in data set [1] (HepG2 cells), the IC50 at 48 h, lay at 5.95 ± 0.92 µM. Besides, the results for the IC50 in data set [2] (Plasmodium falciparum), in data set [3] (setting [9]) and in data set [4] (setting [10]) were 0.0008 ± 0.0001 µM, 0.0045 ± 0.0015 µM and around 3.25 µM, respectively.
In data set [1] (HepG2 cells), `C[C@H]1[C@@H](O)O[C@@H]2O[C@@]3(C)CC[C@H]4[C@H](C)CC[C@@H]1[C@@]24OO3` [Dihydroartemisinin] returned an IC50 at 48 h above 50 µM. Further, the IC50 turned out to be 0.013 ± 0.003 µM in [2] (Plasmodium falciparum); 0.0028 ± 0.0007 µM in data set [3] (setting [9]); 3.56 ± 0.95 µM in data set [4] (setting [10]); 3.56 µM in [4] (setting [11]); 2.47 µM in data set [7] (setting [12]). The inhibition of gametocytes in the data set on gametocytes [8] was 70.4%.
In the case of `OC(c1cc(C(F)(F)F)nc2c(C(F)(F)F)cccc12)C1CCCCN1` (stereo not drawn) [Mefloquine], half-maximal inhibition in [1] (HepG2 cells) (IC50 at 48 h) was put at 11 ± 0.26 µM. For the same molecule, the “selectivity ratio (IC50 in HepG2 cells / IC50 in P. falciparum gametocytes)” value in the data set with HepG2 cells (HepG2 versus mature gametocytes) came out at 2.34. Besides, the IC50 in [2] (Plasmodium falciparum) came to 0.028 ± 0.0014 µM; in data set [3] (setting [9]) it was 0.026 ± 0.017 µM; in [4] (setting [10]), 4.9 µM; in data set [4] (read-out: IC50 Activity against mature gametocytes IV–V, ATP bioluminescence, 48 h, 3D7HT-GFP, mean ± SD, 3–6 independent experiments) it was 4.7 ± 2.1 µM.
`CCc1nc(N)nc(N)c1-c1ccc(Cl)cc1` [Pyrimethamine]: in data set [1] (HepG2 cells), the half-maximal inhibitory concentration (IC50) at 48 h was above 50 µM. Moreover, the figures for the IC50 in data set [2] (Plasmodium falciparum) and in data set [4] (setting [10]) were 33.7 ± 6.72 µM and above 50 µM, respectively. Besides, the “effect on mature gametocytes (in words)” value in data set [4] (3D7HT-GFP line resistant to drugs acting on DHFR) is recorded as “did not have any effect”.
In data set [1] (HepG2 cells), `O=C1C(O)=C([C@H]2CC[C@H](c3ccc(Cl)cc3)CC2)C(=O)c2ccccc21` [Atovaquone] had an IC50 at 48 h above 40 µM. For the same molecule, in the data set with HepG2 cells (at the maximum solubility in culture media), the “cytotoxic effects (in words)” value is “No cytotoxic effects were detected”. For the same molecule, the IC50 in [2] (Plasmodium falciparum) worked out at 0.0018 ± 0.0002 µM; in data set [3] (setting [9]), 0.0007 ± 0.0004 µM; in [4] (setting [10]) it was 16.1 ± 2.12 µM.
`COc1cc(NC(C)CCCN)c2ncccc2c1` (stereo not drawn) [Primaquine] registered an IC50 at 48 h in data set [1] above 50 µM. Also, the half-inhibitory concentration (IC50) is above 10 µM in data set [2] (Plasmodium falciparum); above 10 µM in [3] (setting [9]); 20.9 ± 4.65 µM in data set [4] (setting [10]); 20.9 µM in data set [4] (setting [11]); 87.9 µM in data set [7] (setting [12]).
As to `CCCCN(CCCC)CCC(O)c1cc2c(Cl)cc(Cl)cc2c2cc(C(F)(F)F)ccc12` (stereo not drawn) [Halofantrine], the IC50 at 48 h in [1] (HepG2 cells) is above 50 µM. Also, the figures for the IC50 in data set [2] (Plasmodium falciparum), in data set [3] (setting [9]) and in data set [4] (setting [10]) were 0.0012 ± 0.0005 µM, 0.0011 ± 0.0005 µM and 6.7 ± 0.42 µM, respectively.
Take `CC[C@H]1OC(=O)[C@H](C)[C@@H](O[C@H]2C[C@@](C)(OC)[C@@H](O)[C@H](C)O2)[C@H](C)[C@@H](O[C@@H]2O[C@H](C)C[C@H](N(C)C)[C@H]2O)[C@](C)(O)C[C@@H](C)CN(C)[C@H](C)[C@@H](O)[C@]1(C)O` [Azythromycin]: in data set [1] (HepG2 cells), the IC50 at 48 h is above 50 µM. In addition, the IC50 in [2] (Plasmodium falciparum) is above 10 µM; in data set [3] (Plasmodium falciparum), above 10 µM; in [4] (setting [10]), 28.4 ± 0.64 µM.
Take `C=C[C@H]1C[N@@]2CC[C@H]1C[C@H]2[C@H](O)c1ccnc2ccc(OC)cc12` [Quinine]: in data set [1] (HepG2 cells), the IC50 at 48 h was above 50 µM. Further, the IC50 in data set [2] (Plasmodium falciparum) was determined as 0.106 ± 0.04 µM; in data set [3] (setting [9]), 0.066 ± 0.018 µM.
